In BindingDB's records for doi:10.1016/j.bmcl.2006.08.060 (Lucknow University, 2006):

Tested on: Enterococcus faecalis
Experiment: Antibacterial activity against Streptococcus faecalis by broth microdilution technique

## CNC(C)[C@@H]1CC[C@@H](N)[C@@H](O[C@H]2[C@H](O)[C@@H](O[C@H]3OC[C@](C)(O)[C@H](NC)[C@H]3O)[C@H](N)C[C@@H]2N)O1 (stereo partly specified) [Gentamicin]
  IC50: 445 nM
